Results published in patent US10246444B2, “1,2-dithiolane and dithiol compounds useful in treating mutant EGFR-mediated diseases and conditions” (Sabila Biosciences LLC, priority 2017, dated 2019).
Where two headings read alike, the source gives them in different places.

Assays:
EGFR WT = EGFR WT (Homo sapiens (Human), UniProt P00533); assay: KinaseSeeker rabbit reticulocyte lysate competition binding assay (IC50)
Description: (§1) Luminescence readout translates into a highly sensitive and robust assay with low background and minimal interference from test compounds.
(§2) 10 mM stock solutions of test compounds were serially diluted in DMSO to make assay stocks. Prior to initiating IC50 determinations, the test compounds were evaluated for false positive against split-luciferase.
(§3) For kinase assays, Cfluc-kinase was translated along with Fos-Nfluc using a cell-free system (rabbit reticulocyte lysate) at 30° C. for 90 min. 24 uL aliquot of this lysate containing either 1 uL of DMSO (for no-inhibitor control) or compound solution in DMSO was incubated for 30 minutes at room temperature followed by 1 hour in presence of a kinase specific probe. 80 uL of luciferin assay reagent was added to each solution and luminescence was immediately measured on a luminometer.
(§4) The % Activity was plotted against compound concentration and the IC50 was determined for each compound using a 7-point curve (Jester, B. W.; et. al. J. Am. Chem. Soc. 2010, 132, 11727-11735. Jester, B. W.; et. al. J. Med. Chem. 2012, 55, 1526-1537).

HER2 = HER2 (Homo sapiens (Human), UniProt P04626); assay: as above
Description: as §1, §2, §3, §4

EGFR (L858R) [1] = target: T1, EGFR (L858R) (Homo sapiens (Human), UniProt P00533, L858R); assay: as above
Description: as §1, §2, §3, §4

EGFR WT (wild type EGFR) = EGFR WT (wild type EGFR) (Homo sapiens (Human), UniProt P00533); assay: KINOMEscan competition binding assay (Kd); settings: read-out: Kd Activity Level (EGFR WT)
Description: (§5) The assay is performed by combining three components: DNA-tagged kinase; immobilized ligand; and a test compound. The ability of the test compound to compete with the immobilized ligand is measured via quantitative PCR of the DNA tag.
(§6) For most assays, kinase-tagged T7 phage strains were prepared in an E. coli host derived from the BL21 strain. E. coli were grown to log-phase and infected with T7 phage and incubated with shaking at 32° C. until lysis. The lysates were centrifuged and filtered to remove cell debris. The remaining kinases were produced in HEK-293 cells and subsequently tagged with DNA for qPCR detection. Streptavidin-coated magnetic beads were treated with biotinylated small molecule ligands for 30 minutes at room temperature to generate affinity resins for kinase assays. The liganded beads were blocked with excess biotin and washed with blocking buffer (SeaBlock (Pierce), 1% BSA, 0.05% Tween 20, 1 mM DTT) to remove unbound ligand and to reduce nonspecific binding. […] All reactions were performed in polystyrene 96-well plates in a final volume of 0.135 ml. […] The kinase concentration in the eluates was measured by qPCR.

EGFR (L858R) [2] = target: T1, EGFR (L858R); assay: KINOMEscan competition binding assay (Kd); settings: read-out: Kd Activity Level (EGFR L858R)
Description: as §5, §6

EGFR E746-A750del = EGFR E746-A750del (Homo sapiens (Human), UniProt P00533, DEL746-750); assay: KINOMEscan competition binding assay (Kd); settings: KINOMEscan binding constant; read-out: Kd Activity Level (EGFR E746-A750del)
Description: as §5, §6

EGFR S752-I759del = EGFR S752-I759del (Homo sapiens (Human), UniProt P00533, DEL752-759); assay: KINOMEscan competition binding assay (Kd); settings: KINOMEscan binding constant; read-out: Kd Activity Level (EGFR S752-I759del)
Description: as §5, §6

EGFR L858R/T790M = EGFR L858R/T790M (Homo sapiens (Human), UniProt P00533, L858R/T790M); assay: KINOMEscan competition binding assay (Kd); settings: KINOMEscan binding constant; read-out: Kd Activity Level (EGFR L858R/T790M)
Description: as §5, §6

[3] = read-out: IC50 Activity level EGFR L858R, KinaseSeeker, Table 18

Sequence of EGFR WT (P00533 25-1210): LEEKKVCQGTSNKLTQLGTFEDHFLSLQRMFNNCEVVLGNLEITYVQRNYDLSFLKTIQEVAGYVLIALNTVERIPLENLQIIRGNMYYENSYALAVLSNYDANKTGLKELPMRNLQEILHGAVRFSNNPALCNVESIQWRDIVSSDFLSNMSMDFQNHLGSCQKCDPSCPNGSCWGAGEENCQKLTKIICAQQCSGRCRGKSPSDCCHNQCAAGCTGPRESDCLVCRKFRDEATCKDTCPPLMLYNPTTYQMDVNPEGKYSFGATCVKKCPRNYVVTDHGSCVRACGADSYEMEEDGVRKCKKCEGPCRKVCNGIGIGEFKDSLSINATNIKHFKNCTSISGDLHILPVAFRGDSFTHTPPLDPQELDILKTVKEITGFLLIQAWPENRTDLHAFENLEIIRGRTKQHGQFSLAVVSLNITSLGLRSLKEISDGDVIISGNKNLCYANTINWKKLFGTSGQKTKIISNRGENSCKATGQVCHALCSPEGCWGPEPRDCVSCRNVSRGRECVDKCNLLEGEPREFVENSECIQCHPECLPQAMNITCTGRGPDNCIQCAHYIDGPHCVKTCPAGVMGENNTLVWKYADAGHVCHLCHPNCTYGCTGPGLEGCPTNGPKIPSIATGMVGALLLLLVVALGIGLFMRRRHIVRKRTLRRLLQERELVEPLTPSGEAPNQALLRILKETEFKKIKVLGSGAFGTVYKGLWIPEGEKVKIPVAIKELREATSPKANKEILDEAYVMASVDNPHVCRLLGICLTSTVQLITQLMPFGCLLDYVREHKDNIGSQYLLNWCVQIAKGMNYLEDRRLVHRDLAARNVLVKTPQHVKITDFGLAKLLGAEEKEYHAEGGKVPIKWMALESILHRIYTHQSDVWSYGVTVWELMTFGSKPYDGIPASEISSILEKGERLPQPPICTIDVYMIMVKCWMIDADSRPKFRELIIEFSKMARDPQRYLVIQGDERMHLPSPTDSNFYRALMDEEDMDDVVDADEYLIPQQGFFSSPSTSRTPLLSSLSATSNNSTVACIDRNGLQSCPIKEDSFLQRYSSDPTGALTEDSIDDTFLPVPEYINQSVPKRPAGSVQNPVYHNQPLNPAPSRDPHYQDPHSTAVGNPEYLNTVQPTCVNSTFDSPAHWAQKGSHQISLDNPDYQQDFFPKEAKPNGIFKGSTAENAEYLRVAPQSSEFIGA
Sequence of EGFR WT (wild type EGFR) (P00533 25-1210): as above
Sequence of EGFR E746-A750del (P00533 other isoform, or with tags, fused parts or gaps del E746-A750): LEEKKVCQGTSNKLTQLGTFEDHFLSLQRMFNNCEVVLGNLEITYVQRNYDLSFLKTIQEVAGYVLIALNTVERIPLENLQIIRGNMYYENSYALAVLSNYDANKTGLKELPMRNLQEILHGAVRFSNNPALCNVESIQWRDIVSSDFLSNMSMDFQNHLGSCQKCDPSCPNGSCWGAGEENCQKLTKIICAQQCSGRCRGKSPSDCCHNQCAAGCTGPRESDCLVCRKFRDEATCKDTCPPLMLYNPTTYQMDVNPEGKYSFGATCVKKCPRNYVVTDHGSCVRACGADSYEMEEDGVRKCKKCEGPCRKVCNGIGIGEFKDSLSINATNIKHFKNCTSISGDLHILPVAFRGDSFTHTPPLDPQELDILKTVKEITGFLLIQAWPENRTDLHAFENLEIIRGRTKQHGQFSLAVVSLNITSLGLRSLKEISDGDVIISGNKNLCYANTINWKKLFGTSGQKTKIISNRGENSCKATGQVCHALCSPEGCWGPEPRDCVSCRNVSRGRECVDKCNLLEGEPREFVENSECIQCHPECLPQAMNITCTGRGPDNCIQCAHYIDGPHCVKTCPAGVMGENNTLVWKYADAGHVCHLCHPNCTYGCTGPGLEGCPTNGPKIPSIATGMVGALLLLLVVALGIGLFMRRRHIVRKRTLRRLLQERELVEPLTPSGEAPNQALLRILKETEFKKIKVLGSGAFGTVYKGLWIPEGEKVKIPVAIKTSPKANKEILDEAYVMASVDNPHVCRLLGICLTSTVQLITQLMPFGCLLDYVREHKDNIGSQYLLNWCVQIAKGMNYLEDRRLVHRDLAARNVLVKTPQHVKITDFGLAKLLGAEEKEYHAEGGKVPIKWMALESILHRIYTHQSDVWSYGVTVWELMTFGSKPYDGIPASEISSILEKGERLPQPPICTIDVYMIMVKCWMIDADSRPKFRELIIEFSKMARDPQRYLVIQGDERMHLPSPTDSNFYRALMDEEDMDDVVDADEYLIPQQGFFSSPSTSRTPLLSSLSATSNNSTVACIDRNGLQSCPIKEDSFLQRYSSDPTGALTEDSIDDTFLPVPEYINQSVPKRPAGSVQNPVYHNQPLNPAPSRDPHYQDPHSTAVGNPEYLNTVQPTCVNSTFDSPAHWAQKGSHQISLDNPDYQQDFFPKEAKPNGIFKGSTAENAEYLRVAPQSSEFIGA
Sequence of EGFR L858R/T790M (P00533 25-1210 T790M/L858R): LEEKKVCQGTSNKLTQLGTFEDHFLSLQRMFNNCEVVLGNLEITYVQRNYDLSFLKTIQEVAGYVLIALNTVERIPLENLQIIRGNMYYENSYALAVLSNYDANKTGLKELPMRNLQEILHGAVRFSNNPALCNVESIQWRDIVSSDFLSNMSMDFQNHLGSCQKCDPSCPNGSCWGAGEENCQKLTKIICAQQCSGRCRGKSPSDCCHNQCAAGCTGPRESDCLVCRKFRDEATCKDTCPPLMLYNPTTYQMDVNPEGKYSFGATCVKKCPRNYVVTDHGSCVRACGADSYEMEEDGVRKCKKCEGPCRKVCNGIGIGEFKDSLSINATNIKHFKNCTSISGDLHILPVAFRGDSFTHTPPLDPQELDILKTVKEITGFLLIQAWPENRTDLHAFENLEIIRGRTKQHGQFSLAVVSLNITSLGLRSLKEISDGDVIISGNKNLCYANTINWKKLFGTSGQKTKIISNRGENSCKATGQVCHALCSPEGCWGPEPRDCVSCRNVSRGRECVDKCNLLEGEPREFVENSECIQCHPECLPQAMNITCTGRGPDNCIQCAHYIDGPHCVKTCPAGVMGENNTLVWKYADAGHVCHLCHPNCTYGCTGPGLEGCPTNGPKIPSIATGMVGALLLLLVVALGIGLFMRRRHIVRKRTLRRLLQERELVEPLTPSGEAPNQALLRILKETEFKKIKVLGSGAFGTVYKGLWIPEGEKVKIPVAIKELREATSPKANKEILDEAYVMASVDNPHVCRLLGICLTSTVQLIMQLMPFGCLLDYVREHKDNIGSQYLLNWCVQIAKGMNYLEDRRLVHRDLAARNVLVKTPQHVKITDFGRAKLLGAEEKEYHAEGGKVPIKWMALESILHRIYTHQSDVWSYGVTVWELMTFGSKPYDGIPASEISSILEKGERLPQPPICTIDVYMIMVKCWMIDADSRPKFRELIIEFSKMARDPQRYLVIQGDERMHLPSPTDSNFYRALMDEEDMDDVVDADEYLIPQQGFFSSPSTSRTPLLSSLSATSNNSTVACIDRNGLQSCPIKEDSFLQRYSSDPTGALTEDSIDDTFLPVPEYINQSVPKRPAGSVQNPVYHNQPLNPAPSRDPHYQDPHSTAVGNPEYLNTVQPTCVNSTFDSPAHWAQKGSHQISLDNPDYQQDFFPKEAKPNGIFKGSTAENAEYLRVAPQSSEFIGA
Sequence of EGFR S752-I759del (P00533 other isoform, or with tags, fused parts or gaps del 1-668/del 752-759/del 1012-1210 limits assumed): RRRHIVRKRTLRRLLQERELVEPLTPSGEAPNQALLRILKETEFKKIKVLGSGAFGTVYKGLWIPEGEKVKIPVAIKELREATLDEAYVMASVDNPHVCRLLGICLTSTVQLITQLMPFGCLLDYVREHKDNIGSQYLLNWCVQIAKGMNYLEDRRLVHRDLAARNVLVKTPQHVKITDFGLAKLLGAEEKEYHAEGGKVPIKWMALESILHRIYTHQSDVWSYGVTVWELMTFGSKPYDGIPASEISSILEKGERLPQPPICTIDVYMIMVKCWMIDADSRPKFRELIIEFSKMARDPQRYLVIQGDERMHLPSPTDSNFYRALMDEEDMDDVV

Compound: Cc1ccc(Oc2ccc(Nc3c(C#N)cnc4ccc(NC(=O)CC5CCSS5)cc34)cc2C)cn1 (stereo not shown) [Example 55, N-(3-Cyano-4-((3-methyl-4-((6-methylpyridin-3-yl)oxy)phenyl)amino)quinolin-6-yl)-2-(1,2-dithiolan-3-yl)acetamide]
- IC50 (EGFR WT; read-out: IC50 Activity level EGFR WT, KinaseSeeker, Table 18): > 10000 nM
- IC50 (HER2; read-out: IC50 Activity level HER2, KinaseSeeker, Table 18): > 10000 nM
- IC50 (EGFR (L858R) [1]; [3]): > 10000 nM

Compound: CCOc1cc2ncc(C#N)c(Nc3ccc(F)c(Cl)c3)c2cc1NC(=O)CC1CCSS1 (stereo not shown) [Example 39, N-(4-((3-Chloro-4-fluorophenyl)amino)-3-cyano-7-ethoxyquinolin-6-yl)-2-(1,2-dithiolan-3-yl)acetamide]
- IC50 (EGFR (L858R) [1]): 100 to 999 nM

Compound: CC1(C)OC[C@H](COc2cc3ncc(C#N)c(Nc4ccc(OCc5cccc(F)c5)c(Cl)c4)c3cc2NC(=O)CC2CCSS2)O1 (stereo partly drawn) [Example 79, N-(4-((3-Chloro-4-((3-fluorobenzyl)oxy)phenyl)amino)-3-cyano-7-(((S)-2,2-dimethyl-1,3-dioxolan-4-yl)methoxy)quinolin-6-yl)-2-(1,2-dithiolan-3-yl)acetamide]
- Kd (EGFR WT (wild type EGFR)): 1 to 99 nM
- Kd (EGFR (L858R) [2]): 1 to 99 nM

Compound: COc1cc2ncnc(Nc3ccc(OCc4cccc(F)c4)c(Cl)c3)c2cc1NC(=O)C1CSSC1 [Example 110, N-(4-((3-Chloro-4-((3-fluorobenzyl)oxy)phenyl)amino)-7-methoxyquinazolin-6-yl)-1,2-dithiolane-4-carboxamide]
- IC50 (EGFR WT): 1 to 99 nM
- IC50 (EGFR (L858R) [1]): 1 to 99 nM

Compound: CC(=O)Nc1ccc2ncc(C#N)c(Nc3ccc(OCc4cccc(F)c4)c(Cl)c3)c2c1 [Example 58, N-(4-((3-Chloro-4-((3-fluorobenzyl)oxy)phenyl)amino)-3-cyanoquinolin-6-yl)acetamide]
- IC50 (EGFR (L858R) [1]; [3]): > 10000 nM

Compound: CC1(C)OC[C@H](COc2cc3ncc(C#N)c(Nc4ccc(OCc5cccc(F)c5)c(Cl)c4)c3cc2NC(=O)C[C@H]2CCSS2)O1 (single isomer, unassigned; isomer 2) [80 isomer 2]
- Kd (EGFR WT (wild type EGFR)): 1 to 99 nM
- Kd (EGFR (L858R) [2]): 1 to 99 nM

Compound: CCOc1cc2ncc(C#N)c(Nc3ccc(OCc4cccc(F)c4)c(Cl)c3)c2cc1NC(=O)CCCCC1CCSS1 (stereo not shown) [Example 44]
- IC50 (EGFR (L858R) [1]): 1 to 99 nM

Compound: CCOc1cc2ncc(C#N)c(Nc3ccc(F)c(Cl)c3)c2cc1NC(=O)CC(CCSCc1ccccc1)SCc1ccccc1 (stereo not shown) [Example 38, 3,5-Bis(benzylthio)-N-(4-((3-chloro-4-fluorophenyl)amino)-3-cyano-7-ethoxyquinolin-6-yl)pentanamide]
- IC50 (EGFR (L858R) [1]): 1000 to 10000 nM

Compound: CCOc1cc2ncc(C#N)c(Nc3ccc(F)c(Cl)c3)c2cc1NC(=O)C1CCSS1 (stereo not shown) [Example 33, N-(4-((3-Chloro-4-fluorophenyl)amino)-3-cyano-7-ethoxyquinolin-6-yl)-1,2-dithiolane-3-carboxamide]
- Kd (EGFR WT (wild type EGFR)): 1 to 99 nM
- Kd (EGFR (L858R) [2]): 1 to 99 nM
- IC50 (EGFR (L858R) [1]): 1 to 99 nM

Compound: N#Cc1cnc2cc(OC[C@H](O)CO)c(NC(=O)C[C@H]3CCSS3)cc2c1Nc1ccc(OCc2cccc(F)c2)c(Cl)c1 [Example 81, N-(4-((3-Chloro-4-((3-fluorobenzyl)oxy)phenyl)amino)-3-cyano-7-((R)-2,3-dihydroxypropoxy)quinolin-6-yl)-2-(1,2-dithiolan-3S-yl) acetamide]
- Kd (EGFR WT (wild type EGFR)): 1 to 99 nM
- Kd (EGFR E746-A750del): 1 to 99 nM
- Kd (EGFR S752-I759del): 1 to 99 nM
- IC50 (EGFR WT): 100 to 999 nM
- Kd (EGFR (L858R) [2]): 1 to 99 nM
- IC50 (HER2): 100 to 999 nM
- Kd (EGFR L858R/T790M): > 10000 nM
- IC50 (EGFR (L858R) [1]): 1 to 99 nM

Compound: CCOc1cc2ncc(C#N)c(Nc3ccc(OCc4cccc(F)c4)c(Cl)c3)c2cc1NC(=O)C1CSSC1 [Example 36, N-(4-((3-Chloro-4-((3-fluorobenzyl)oxy)phenyl)amino)-3-cyano-7-ethoxyquinolin-6-yl)-1,2-dithiolane-4-carboxamide]
- Kd (EGFR WT (wild type EGFR)): 1 to 99 nM
- Kd (EGFR E746-A750del): 1 to 99 nM
- Kd (EGFR S752-I759del): 1 to 99 nM
- IC50 (EGFR WT): 100 to 999 nM
- Kd (EGFR (L858R) [2]): 1 to 99 nM
- IC50 (HER2): 100 to 999 nM
- Kd (EGFR L858R/T790M): > 10000 nM
- IC50 (EGFR (L858R) [1]): 1 to 99 nM

Compound: N#Cc1cnc2cc(OC[C@@H](O)CO)c(NC(=O)C[C@@H]3CCSS3)cc2c1Nc1ccc(OCc2cccc(F)c2)c(Cl)c1 [Example 85, N-(4-((3-Chloro-4-((3-fluorobenzyl)oxy)phenyl)amino)-3-cyano-7-((S)-2,3-dihydroxypropoxy)quinolin-6-yl)-2-(1,2-dithiolan-3R-yl)acetamide]
- Kd (EGFR WT (wild type EGFR)): 1 to 99 nM
- Kd (EGFR E746-A750del): 1 to 99 nM
- Kd (EGFR S752-I759del): 1 to 99 nM
- IC50 (EGFR WT): 100 to 999 nM
- Kd (EGFR (L858R) [2]): 1 to 99 nM
- IC50 (HER2): 100 to 999 nM
- Kd (EGFR L858R/T790M): > 10000 nM
- IC50 (EGFR (L858R) [1]): 1 to 99 nM

Compound: COc1cc2ncnc(Nc3ccc(Oc4ccc(C)nc4)c(C)c3)c2cc1NC(=O)C1CSSC1 [Example 104, N-(7-Methoxy-4-((3-methyl-4-((6-methylpyridin-3-yl)oxy)phenyl)amino)quinazolin-6-yl)-1,2-dithiolane-4-carboxamide]
- IC50 (EGFR WT): 100 to 999 nM
- IC50 (HER2): 100 to 999 nM
- IC50 (EGFR (L858R) [1]): 100 to 999 nM

Compound: CC1(C)OC[C@H](COc2cc3ncc(C#N)c(Nc4ccc(OCc5cccc(F)c5)c(Cl)c4)c3cc2NC(=O)CC2CCSS2)O1 (single isomer, unassigned; isomer 2) [84 isomer 2]
- Kd (EGFR WT (wild type EGFR)): 1 to 99 nM
- Kd (EGFR (L858R) [2]): 1 to 99 nM

Compound: CC1(C)OC[C@@H](COc2cc3ncc(C#N)c(Nc4ccc(OCc5cccc(F)c5)c(Cl)c4)c3cc2NC(=O)CC2CCSS2)O1 (single isomer, unassigned; isomer 1) [84 isomer 1]
- Kd (EGFR WT (wild type EGFR)): 1 to 99 nM
- Kd (EGFR (L858R) [2]): 1 to 99 nM

Compound: CCOc1cc2ncc(C#N)c(Nc3ccc(F)c(Cl)c3)c2cc1NC(=O)C1CSSC1 [Example 31, N-(4-((3-Chloro-4-fluorophenyl)amino)-3-cyano-7-ethoxyquinolin-6-yl)-1,2-dithiolane-4-carboxamide]
- IC50 (EGFR WT): 100 to 999 nM
- IC50 (HER2): 100 to 999 nM
- IC50 (EGFR (L858R) [1]): 100 to 999 nM

Compound: COc1cc2ncnc(Nc3ccc(OCc4cccc(F)c4)c(Cl)c3)c2cc1NC(=O)C(CSC(C)=O)CSC(C)=O [Example 109, S,S′-(2-((4-((3-Chloro-4-((3-fluorobenzyl)oxy)phenyl)amino)-7-methoxyquinazolin-6-yl)carbamoyl)propane-1,3-diyl)diethanethioate]
- IC50 (EGFR WT): 1 to 99 nM
- IC50 (EGFR (L858R) [1]): 1 to 99 nM

Compound: N#Cc1cnc2cc(OC[C@@H](O)CO)c(NC(=O)C[C@H]3CCSS3)cc2c1Nc1ccc(OCc2cccc(F)c2)c(Cl)c1 [Example 86, N-(4-((3-Chloro-4-((3-fluorobenzyl)oxy)phenyl)amino)-3-cyano-7-((S)-2,3-dihydroxypropoxy)quinolin-6-yl)-2-(1,2-dithiolan-3S-yl)acetamide]
- Kd (EGFR WT (wild type EGFR)): 1 to 99 nM
- Kd (EGFR E746-A750del): 1 to 99 nM
- Kd (EGFR S752-I759del): 1 to 99 nM
- IC50 (EGFR WT): 100 to 999 nM
- Kd (EGFR (L858R) [2]): 1 to 99 nM
- IC50 (HER2): 100 to 999 nM
- Kd (EGFR L858R/T790M): > 10000 nM
- IC50 (EGFR (L858R) [1]): 1 to 99 nM

Compound: CCOc1cc2ncc(C#N)c(Nc3ccc(OCc4cccc(F)c4)c(Cl)c3)c2cc1NC(=O)C(CSC(C)=O)CSC(C)=O [Example 34]
- Kd (EGFR WT (wild type EGFR)): 1 to 99 nM
- Kd (EGFR E746-A750del): 100 to 999 nM
- Kd (EGFR S752-I759del): 100 to 999 nM
- IC50 (EGFR WT): 100 to 999 nM
- Kd (EGFR (L858R) [2]): 1 to 99 nM
- IC50 (HER2): 100 to 999 nM
- Kd (EGFR L858R/T790M): > 10000 nM
- IC50 (EGFR (L858R) [1]): 1 to 99 nM

Compound: CC(=O)SCC(CSC(C)=O)C(=O)Nc1ccc2ncc(C#N)c(Nc3ccc(OCc4cccc(F)c4)c(Cl)c3)c2c1 [Example 60, S,S′-(2-((4-((3-Chloro-4-((3-fluorobenzyl)oxy)phenyl)amino)-3-cyanoquinolin-6-yl)carbamoyl)propane-1,3-diyl)diethanethioate]
- IC50 (EGFR WT): 100 to 999 nM
- IC50 (EGFR (L858R) [1]): 1 to 99 nM

Compound: CC(=O)SCC(CSC(C)=O)C(=O)Nc1cc2c(Nc3ccc(OCc4cccc(F)c4)c(Cl)c3)c(C#N)cnc2cc1OC[C@H](O)CO [Example 94, (R)—S,S′-(2-((4-((3-Chloro-4-((3-fluorobenzyl)oxy)phenyl)amino)-3-cyano-7-(2,3-dihydroxypropoxy)quinolin-6-yl)carbamoyl)propane-1,3-diyl)diethanethioate]
- Kd (EGFR WT (wild type EGFR)): 1 to 99 nM
- Kd (EGFR (L858R) [2]): 1 to 99 nM

Compound: N#Cc1cnc2cc(OC[C@H](O)CO)c(NC(=O)CC3CCSS3)cc2c1Nc1ccc(OCc2cccc(F)c2)c(Cl)c1 (stereo partly drawn) [Example 82, N-(4-((3-Chloro-4-((3-fluorobenzyl)oxy)phenyl)amino)-3-cyano-7-((R)-2,3-dihydroxypropoxy)quinolin-6-yl)-2-(1,2-dithiolan-3-yl)acetamide]
- Kd (EGFR WT (wild type EGFR)): 1 to 99 nM
- Kd (EGFR E746-A750del): 1 to 99 nM
- Kd (EGFR S752-I759del): 1 to 99 nM
- IC50 (EGFR WT): 100 to 999 nM
- Kd (EGFR (L858R) [2]): 1 to 99 nM
- IC50 (HER2): 100 to 999 nM
- Kd (EGFR L858R/T790M): > 10000 nM
- IC50 (EGFR (L858R) [1]): 1 to 99 nM

Compound: CC1(C)OC[C@H](COc2cc3ncc(C#N)c(Nc4ccc(OCc5cccc(F)c5)c(Cl)c4)c3cc2NC(=O)C[C@@H]2CCSS2)O1 (single isomer, unassigned; isomer 1) [80 isomer 1]
- Kd (EGFR WT (wild type EGFR)): 1 to 99 nM
- Kd (EGFR (L858R) [2]): 1 to 99 nM

Compound: CCOc1cc2ncc(C#N)c(Nc3ccc(F)c(Cl)c3)c2cc1NC(=O)CCCCC1CCSS1 (stereo not shown) [Example 42, N-(4-(3-Chloro-4-fluorophenylamino)-3-cyano-7-ethoxyquinolin-6-yl)-5-(1,2-dithiolan-3-yl)pentanamide]
- IC50 (EGFR WT): 100 to 999 nM
- IC50 (HER2): 100 to 999 nM
- IC50 (EGFR (L858R) [1]): 100 to 999 nM
